Experimental data as given in US5376643A, “Composition for application to hair” (priority 1986, dated 1994).
Where two headings read alike, the source gives them in different places.

Assays:
grayed hair [1] = experiment: Half-Head technique: preventing graying of the hair and restoring grayed hair to its natural color (Example 1 procedure); type: in vivo, human (men and women); details: for effect of preventing graying and restoring grayed hair, compared with Example 2 / amount of grayed hair / effect of preventing graying of the hair and restoring grayed hair to its natural color / effect of preventing graying and restoring grayed hair / effect on graying, compared with Example 12: in words; for effect of preventing graying and restoring grayed hair, compared with Example 2: hair cream, used instead of N^6,O^2'-DScAMP-Na; for Comp. Sample is better / Comp. Sample is somewhat better / Same / This Invention is better / This Invention is somewhat better: 3 months; for amount of grayed hair / effect of preventing graying of the hair and restoring grayed hair to its natural color: compared with comparative sample free from the component; for effect of preventing graying and restoring grayed hair: hair tonic; for effect on graying, compared with Example 12: hair tonics, used in place of FAD-2Na
Excerpt: The effectiveness of the hair tonics thus prepared were estimated in the following manner: Twenty statistically equivalent persons (comprising men and women aged 30 to 60 years) were selected and Samples of the hair tonics were applied to their scalps in accordance with the Half-Head technique, in which Samples were separately applied to the right and left half portions of the scalp, twice a day (in the morning and at night) for three months. The effects of preventing graying of the hair and restoring grayed hair to its natural color were estimated by comparing the conditions of the portions observed before and after the application of Samples.

grayed hair [2] = experiment: Half-Head technique, two groups of 20 persons: preventing graying of the hair and restoring grayed hair (Example 6 procedure); type: in vivo, human (men and women); details: in words; hair creams
Excerpt: Two groups each of which comprised 20 persons (50 to 60 years old; comprising men and women) were selected and the hair tonic Samples (S-I and S-II) were separately applied to scalp of each person of one group in accordance with Half-Head technique wherein the hair tonics I and II were separately applied to the right half of the scalp and the left half thereof, on the other hand Samples (S-II and S-III) were likewise separately applied to each person of the other group in the same manner twice a day (in the morning and at night) for 3 months.

[3] = Safety examination (overall, in words); details: same procedures as in Example 1
guinea pig [4] = experiment: Photosensitization (guinea pig); type: in vivo
guinea pig [5] = experiment: Phototoxicity (guinea pig); type: in vivo
rabbit = details: in vivo
guinea pig [6] = details: in vivo
guinea pig [7] = experiment: Skin Sensitization (guinea pig); type: in vivo
scalp [8] = details: in vivo
Excerpt: (§1) Twenty statistically equivalent persons (comprising men and women aged 30 to 60 years) were selected and Samples of the hair tonics were applied to their scalps in accordance with the Half-Head technique, in which Samples were separately applied to the right and left half portions of the scalp, twice a day (in the morning and at night) for three months. The effects of preventing graying of the hair and restoring grayed hair to its natural color were estimated by comparing the conditions of the portions observed before and after the application of Samples.

[9] = Acute Oral Toxicity (rat); details: in vivo
[10] = in vivo
human = details: in vivo
scalp [11] = experiment: Condition of the scalp during and after use for 3 months
Excerpt: as §1

[12] = in words; cited from earlier work
[13] = in words; cited from earlier work; remark: listed apart in the source
[14] = Table XXV, hair tonic with 0.1% vs tonic without
[15] = Table III, of 20 persons, hair tonic with 0.05% vs tonic without, twice a day
[16] = Table X, hair cream with 0.8% vs cream without
[17] = Table VIII, milky lotion with 0.2% vs lotion without

Nc1ncnc2c1nc(Br)n2[C@@H]1O[C@@H]2COP(=O)(O)O[C@H]2[C@H]1O [8-BrcAMP-Na]
effect of preventing graying and restoring grayed hair, compared with Example 2 (grayed hair [1]): Substantially the same excellent effect as in Example 2

Nc1ncnc2c1nc(Sc1ccc(Cl)cc1)n2[C@@H]1O[C@@H]2COP(=O)(O)O[C@H]2[C@H]1O [8-C1PhScAMP-Na]
effect of preventing graying and restoring grayed hair, compared with Example 2 (grayed hair [1]): Substantially the same excellent effect as in Example 2

Nc1ncnc2c1nc(Cl)n2[C@@H]1O[C@@H]2COP(=O)(O)O[C@H]2[C@H]1O [8-ClcAMP-Na]
effect of preventing graying and restoring grayed hair, compared with Example 2 (grayed hair [1]): Substantially the same excellent effect as in Example 2

Nc1ncnc2c1nc(O)n2[C@@H]1O[C@@H]2COP(=O)(O)O[C@H]2[C@H]1O [8-OHcAMP-Na]
effect of preventing graying and restoring grayed hair, compared with Example 2 (grayed hair [1]): Substantially the same excellent effect as in Example 2

Nc1ncnc2c1nc(S)n2[C@@H]1O[C@@H]2COP(=O)(O)O[C@H]2[C@H]1O [8-SHcAMP-Na]
effect of preventing graying and restoring grayed hair, compared with Example 2 (grayed hair [1]): Substantially the same excellent effect as in Example 2

Cc1cc2nc3c(=O)[nH]c(=O)nc-3n(C[C@H](O)[C@H](O)[C@H](O)COP(=O)(O)OP(=O)(O)OC[C@H]3O[C@@H](n4cnc5c(N)ncnc54)[C@H](O)[C@@H]3O)c2cc1C [FAD, flavin adenine dinucleotide]
effect on graying, compared with Example 7 (grayed hair [2]): approximately the same results as those in Example 7

Cc1cc2nc3c(=O)[nH]c(=O)nc-3n(C[C@H](O)[C@H](O)[C@H](O)COP(=O)(O)OP(=O)(O)OC[C@H]3O[C@@H](n4cnc5c(N)ncnc54)[C@H](O)[C@@H]3O)c2cc1C [FAD-2Na]
Comp. Sample is better (grayed hair [1]; [14]): 0 | Comp. Sample is somewhat better (grayed hair [1]; [14]): 0 | Same (grayed hair [1]; [14]): 4 | This Invention is better (grayed hair [1]; [14]): 8 | This Invention is somewhat better (grayed hair [1]; [14]): 8 | safety [3]: had no problems such as skin irritation and thus had extremely high safety

CC(=O)Nc1ncnc2c1nc(N)n2C1OC2COP(=O)([O-])OC2C1OC(C)=O.[Na+] (stereo not drawn) [N^6,O^2'-DA-8-NH2 cAMP-Na]
effect of preventing graying and restoring grayed hair, compared with Example 2 (grayed hair [1]): Substantially the same excellent effect as in Example 2

CCCC(=O)Nc1ncnc2c1ncn2[C@@H]1O[C@@H]2COP(=O)(O)O[C@H]2[C@H]1OC(=O)CCC [N^6,O^2'-DBcAMP-Na]
Photosensitization (guinea pig [4]): negative | Phototoxicity (guinea pig [5]): negative | Ocular-mucous Membrane Irritation (rabbit): non-irritant | Primary Skin Irritation (guinea pig [6]): non-irritant | Comp. Sample is better (grayed hair [1]; [15]): 0 | Comp. Sample is somewhat better (grayed hair [1]; [15]): 0 | Same (grayed hair [1]; [15]): 2 | This Invention is better (grayed hair [1]; [15]): 11 | This Invention is somewhat better (grayed hair [1]; [15]): 7 | amount of grayed hair (grayed hair [1]): reduced the amount of grayed hair more effectively than the comparative hair tonic | effect of preventing graying of the hair and restoring grayed hair to its natural color (grayed hair [1]): remarkable effect | effect of preventing graying and restoring grayed hair (grayed hair [1]; amount of 0.005%): little effect | effect of preventing graying and restoring grayed hair (grayed hair [1]; amount of 0.01): effective | Skin Sensitization (guinea pig [7]): negative | abnormality in the condition of the scalp (scalp [8]): No abnormality was observed | LD50 [9]: ≥ 5000 mg/kg | safety [10]: extremely high | Human Patch Test (human): non-irritant

CCCC(=O)Nc1ncnc2c1ncn2[C@@H]1O[C@@H]2COP(=O)(O)O[C@H]2[C@H]1O [N^6-MBcAMP-Na]
abnormality in the condition of the scalp (scalp [11]): no abnormality was observed | Comp. Sample is better (grayed hair [1]; [16]): 0 | Comp. Sample is somewhat better (grayed hair [1]; [16]): 0 | Same (grayed hair [1]; [16]): 4 | This Invention is better (grayed hair [1]; [16]): 9 | This Invention is somewhat better (grayed hair [1]; [16]): 7 | amount of grayed hair (grayed hair [1]): the amount of grayed hair was reduced | effect of preventing graying of the hair and restoring grayed hair to its natural color (grayed hair [1]): excellent effect | safety [3]: had no problems such as skin irritation and thus had extremely high safety

CCCCCC(=O)Nc1ncnc2c1ncn2C1OC2COP(=O)([O-])OC2C1O.[Na+] (stereo not drawn) [N^6-MHcAMP-Na]
effect on graying, compared with Example 12 (grayed hair [1]): substantially the same effect as in Example 12

CCCC(=O)O[C@@H]1[C@@H]2OP(=O)(O)OC[C@H]2O[C@H]1n1cnc2c(N)ncnc21 [O^2 -MBcAMP-Na]
effect on graying, compared with Example 7 (grayed hair [2]): approximately the same results as those in Example 7

CCCC(=O)O[C@@H]1[C@@H]2OP(=O)(O)OC[C@H]2O[C@H]1n1c(Br)nc2c(N)ncnc21 [O^2'-MB-8BrcAMP-Na]
effect of preventing graying and restoring grayed hair, compared with Example 2 (grayed hair [1]): Substantially the same excellent effect as in Example 2

CCCCCCCC(=O)OC1C2OP(=O)([O-])OCC2OC1n1cnc2c(N)ncnc21.[Na+] (stereo not drawn) [O^2'-MOcAMP-Na]
effect on graying, compared with Example 12 (grayed hair [1]): substantially the same effect as in Example 12

Nc1ncnc2c1ncn2[C@@H]1O[C@@H]2COP(=O)([O-])O[C@H]2[C@H]1OC(=O)CCC(=O)O.[Na+] [O^2'-MScAMP-Na]
abnormality in the condition of the scalp (scalp [11]): no abnormality was observed | Comp. Sample is better (grayed hair [1]; [17]): 0 | Comp. Sample is somewhat better (grayed hair [1]; [17]): 0 | Same (grayed hair [1]; [17]): 3 | This Invention is better (grayed hair [1]; [17]): 10 | This Invention is somewhat better (grayed hair [1]; [17]): 7 | amount of grayed hair (grayed hair [1]): the amount of grayed hair was reduced | effect of preventing graying of the hair and restoring grayed hair to its natural color (grayed hair [1]): excellent effect | safety [3]: had no problems such as skin irritation and thus had extremely high safety

CCCCCCCCC(=O)O [nonanoic acid]
effect on graying, compared with Example 7 (grayed hair [2]): approximately the same results as in Example 7

CCCCCCCCCCCOCC(COCCCCCCCCCCC)OCCCCCCCCCCC [triundecyl glycerylether]
effect on graying, compared with Example 7 (grayed hair [2]): approximately the same results as in Example 7

C=C1CC[C@H](O)C/C1=C/C=C1\CCC[C@]2(C)[C@@H]([C@H](C)CCCC(C)C)CC[C@@H]12 [vitamin D3]
stability in the air [12]: extremely unstable in the air and easily undergo oxidation | side-effects [13]: tend to cause side-effectssuch as hypervitaminosis D or hypercalcemia
